Test results from ChEMBL document CHEMBL5029155, “Design, Synthesis, and Biological Evaluation of Stable Colchicine-Binding Site Tubulin Inhibitors 6-Aryl-2-benzoyl-pyridines as Potential Anticancer Agents” (J Med Chem, 2021).

Assays:
[1] = tested on: MDA-MB-231; assay: Antiproliferative activity against human MDA-MB-231 cells assessed as cell growth inhibition incubated for 72 hrs by MTS assay; type: functional, cell-based; details: MDA-MB-231, 72 h
[2] = tested on: MDA-MB-453; assay: Antiproliferative activity against human MDA-MB-453 cells assessed as cell growth inhibition incubated for 72 hrs by MTS assay; type: functional, cell-based; details: MDA-MB-453, 72 h
[3] = tested on: SK-BR-3; assay: Antiproliferative activity against human SK-BR-3 cells assessed as cell growth inhibition incubated for 72 hrs by MTS assay; type: functional, cell-based; details: SK-BR-3, 72 h
[4] = tested on: A-375; assay: Antiproliferative activity against human A-375 cells assessed as cell growth inhibition incubated for 72 hrs by MTS assay; type: functional, cell-based; details: A-375, 72 h
[5] = tested on: M14; assay: Antiproliferative activity against human M14 cells assessed as cell growth inhibition incubated for 72 hrs by MTS assay; type: functional, cell-based; details: M14, 72 h
[6] = tested on: RPMI-7951; assay: Antiproliferative activity against human RPMI-7951 cells assessed as cell growth inhibition incubated for 72 hrs by MTS assay; type: functional, cell-based; details: RPMI-7951, 72 h
[7] = Metabolic stability in human liver microsomes assessed as half life in presence of NADPH regenerating system by UPLC-MS analysis; type: ADME, Microsome; details: for t1/2: microsomes
[8] = Metabolic stability in human liver microsomes assessed as intrinsic clearance in presence of NADPH regenerating system by UPLC-MS analysis; type: ADME, Microsome; details: read-out: CLH
[9] = Metabolic stability in mouse liver microsomes assessed as half life in presence of NADPH regenerating system by UPLC-MS analysis; type: ADME, Microsome; details: for t1/2: microsomes
[10] = Metabolic stability in mouse liver microsomes assessed as intrinsic clearance in presence of NADPH regenerating system by UPLC-MS analysis; type: ADME, Microsome; details: read-out: CLH
[11] = Induction of cell cycle arrest in human A375/TxR cells assessed as accumulation at G2/M phase at 10 nM measured for 24 hrs by PI staining based flow cytometry analysis
[12] = tested on: M14; assay: Cytotoxicity against human M14 cells measured after 72 hrs […]; type: functional, cell-based; details: M14, 72 h
[13] = tested on: M14; assay: Cytotoxicity against paclitaxel resistant human M14 cells measured after 72 hrs […]; type: functional, cell-based; details: M14, 72 h
[14] = Induction of apoptosis in human A375/TxR cells assessed as apoptotic cells at 10 nM measured for 24 hrs by annexin VFITC /PI staining based analysis (reference value: […]); type: functional

Row | IC50 [1] | IC50 [2] | IC50 [3] | IC50 [4] | t1/2 [7] | CLint scaled [8] | t1/2 [9] | CLint scaled [10] | half-life ([7]; liver microsomes) | half-life ([9]; liver microsomes) | Structure (SMILES) | IC50 [5] | IC50 [6] | Activity [11] | IC50 [12] | IC50 [13] | Activity [14]
1 | 6.6 nM | 2.1 nM | 4.2 nM | 3.7 nM | 9 min | 136 mL/min/kg | 8.4 min | 397 mL/min/kg |  |  | COCCOc1c(OC)cc(C(=O)c2cccc(-c3ccc(C)cc3)n2)cc1OC | 2.4 nM | 5 nM |  |  |  | 
2 | 4.3 nM | 4.2 nM | 2.4 nM | 2.6 nM | 33 min | 38.1 mL/min/kg | 90 min | 38.2 mL/min/kg |  |  | COc1cc(C(=O)c2nc(-c3ccc(C(F)F)cc3)ccc2F)cc(OC)c1OC | 3.2 nM | 2.1 nM |  |  |  | 
3 | 16 nM | 9.7 nM | 5.5 nM | 4.3 nM | 43.2 min | 28.8 mL/min/kg | 4.2 min | 824 mL/min/kg |  |  | COc1cc(C(=O)c2cc(C)cc(-c3ccc(C)cc3)n2)cc(OC)c1OC | 4.4 nM | 6.4 nM |  |  |  | 
4 | 8 nM | 4 nM | 26.7 nM | 5.9 nM | 46.8 min | 26.6 mL/min/kg | 119.4 min | 28.7 mL/min/kg |  |  | COc1cc(C(=O)c2cncc(-c3ccc(C)c(O)c3)n2)cc(OC)c1OC | 5.2 nM | 5.2 nM |  |  |  | 
5 | 42.7 nM | 33.7 nM | 54.5 nM | 53.8 nM |  |  |  |  |  |  | COc1cc(C(=O)c2cccc(-c3ccc(N(C)C)cc3)n2)cc(OC)c1OC | 63.5 nM | 44 nM |  |  |  | 
6 | 3.3 nM | 1.1 nM | 4.1 nM | 2 nM | 10.8 min | 116 mL/min/kg |  | 57.3 mL/min/kg |  |  | COc1cc(C(=O)c2cccc(-c3ccc(C)c(O)c3)n2)cc(OC)c1OC | 2 nM | 2.8 nM | 60% |  |  | 
7 | 4.7 nM | 4 nM | 3.8 nM | 3 nM | 5.4 min | 240 mL/min/kg | 12.6 min | 271 mL/min/kg |  |  | COc1cc(C(=O)c2cccc(-c3ccc(C(F)F)cc3)n2)cc(OC)c1OC | 4.7 nM | 2.8 nM |  |  |  | 
8 | 31.6 nM | 14.2 nM | 17.1 nM | 36.1 nM |  |  |  |  |  |  | COc1cc(C(=O)c2ccnc(-c3c[nH]c4ccccc34)n2)cc(OC)c1OC | 29.1 nM | 29.7 nM |  |  |  | 
9 | 112 nM | 28.1 nM | 25.6 nM | 52.3 nM |  |  |  |  |  |  | COc1cc(C(=O)c2nc(-c3ccc(C)c(O)c3)[nH]c2C)cc(OC)c1OC | 46.6 nM | 56 nM |  |  |  | 
10 | 70.9 nM | 68.1 nM | 119 nM | 85 nM |  |  |  |  |  |  | COc1cc(C(=O)c2nc(-c3ccc(C)c(O)c3)[nH]c2Br)cc(OC)c1OC | 76.3 nM | 133 nM |  |  |  | 
11 | 22.3 nM | 54.9 nM | 65.6 nM | 21.1 nM | 205.2 min | 6.1 mL/min/kg | 167.4 min | 20.5 mL/min/kg |  |  | COc1cc(-c2n[nH]c3ccc(-c4ccc(C)c(O)c4)nc23)cc(OC)c1OC | 18.5 nM | 22.9 nM |  |  |  | 
12 |  |  |  |  |  |  |  |  |  |  | CC(=O)O[C@H]1C(=O)[C@@]2(C)[C@H]([C@H](OC(=O)c3ccccc3)[C@]3(O)C[C@H](OC(=O)[C@H](O)[C@@H](NC(=O)c4ccccc4)c4ccccc4)C(C)=C1C3(C)C)[C@]1(OC(C)=O)CO[C@@H]1C[C@@H]2O [PACLITAXEL] |  |  |  | 0.5 nM | 186 nM | 11.8%
13 |  |  |  |  |  |  |  |  |  |  | COc1cc2c(c(OC)c1OC)-c1ccc(OC)c(=O)cc1[C@@H](NC(C)=O)CC2 [COLCHICINE] |  |  |  |  | > 1000 nM | 
14 | 5.3 nM | 3.9 nM | 4.2 nM | 2.4 nM | 4.2 min | 317 mL/min/kg | 3 min | 1050 mL/min/kg |  |  | COc1cc(C(=O)c2cccc(-c3ccc(C)cc3)n2)cc(OC)c1OC | 3.1 nM | 3.5 nM |  |  |  | 
15 | 5.5 nM | 5.5 nM | 3.5 nM | 8.8 nM |  |  |  |  |  |  | COc1cc(C(=O)c2cc(C)cc(-c3ccc(C)c(N)c3)n2)cc(OC)c1OC | 5.9 nM | 6.3 nM |  |  |  | 
16 | 515 nM | 139 nM | 82.9 nM | 174 nM |  |  |  |  |  |  | COc1cc(-n2ccc3ccc(-c4ccc(C)cc4)nc32)cc(OC)c1OC | 76.5 nM | 205 nM |  |  |  | 
17 | 4.8 nM | 6.7 nM | 7.1 nM | 2.5 nM | 20.4 min |  | 42.6 min | 65.8 mL/min/kg |  |  | COc1cc(C(=O)c2cncc(-c3ccc(C)cc3)n2)cc(OC)c1OC | 1.7 nM | 2.2 nM |  |  |  | 
18 | 11.1 nM | 5 nM | 4.5 nM | 7.9 nM | 27.6 min | 45 mL/min/kg | > 240 min | 13 mL/min/kg |  |  | COc1cc(C(=O)c2cc(OC)c(OC)c(OC)c2)nc(-c2ccc(C)cc2)c1 | 7.7 nM | 6.8 nM |  |  |  | 
19 | 15.1 nM | 2.8 nM | 12 nM | 6.8 nM | 9 min | 142 mL/min/kg | 78.6 min | 43.8 mL/min/kg |  |  | COc1cc(C(=O)c2ccnc(-c3ccc(C)c(O)c3)n2)cc(OC)c1OC | 5.4 nM | 7.2 nM |  |  |  | 
20 | 5.3 nM | 3.2 nM | 3.2 nM | 3.6 nM | 7.2 min | 172 mL/min/kg | 1.8 min | 1900 mL/min/kg |  |  | COc1cc(C(=O)c2cccc(-c3ccc(C)cc3)n2)cc2c1OCCO2 | 4.5 nM | 3.1 nM |  |  |  | 
21 | 5.3 nM | 5.9 nM | 5.5 nM | 5 nM |  | 83.6 mL/min/kg |  | 818 mL/min/kg | 15 min | 4.2 min | COc1cc(C(=O)c2cccc(-c3ccc4c(c3)CCN4)n2)cc(OC)c1OC | 5.6 nM | 5.9 nM |  |  |  | 
22 | 17.6 nM | 14.7 nM | 16.9 nM | 22.2 nM | 42.6 min | 29.2 mL/min/kg | 45 min | 76.7 mL/min/kg |  |  | COc1cc(C(=O)c2cc(OC)c(OC)c(OC)c2)nc(-c2ccc(C)c(O)c2)c1 | 17.5 nM | 17.2 nM |  |  |  | 
23 | 2.3 nM | 2.5 nM | 1.9 nM | 3.7 nM | 9.6 min | 133 mL/min/kg | 12.6 min | 273 mL/min/kg |  |  | COc1cc(C(=O)c2nc(-c3ccc(C)cc3)ccc2F)cc(OC)c1OC | 2.6 nM | 3.4 nM |  |  |  | 
24 | 12.4 nM | 13.2 nM | 35 nM | 16.7 nM |  |  |  |  |  |  | COc1cc(C(=O)c2cncc(-c3c[nH]c4ccccc34)n2)cc(OC)c1OC | 19.2 nM | 14.4 nM |  |  |  | 
25 | 45 nM | 89.7 nM | 52.3 nM | 80.9 nM |  |  |  |  |  |  | COc1cc(C(=O)c2cc(F)cc(-c3ccc(C(F)F)cc3)c2)cc(OC)c1OC | 56.3 nM | 40.8 nM |  |  |  | 
26 | 33.4 nM | 19.3 nM | 15.2 nM | 28.8 nM |  |  |  |  |  |  | COc1cc(C(=O)c2cccc(-c3ccc(C)c(NC(C)=O)c3)n2)cc(OC)c1OC | 12.6 nM | 21.2 nM |  |  |  | 
27 | 37.4 nM | 8.7 nM | 10.1 nM | 15.1 nM | 54.6 min | 22.9 mL/min/kg | 211.8 min | 16.2 mL/min/kg |  |  | CCc1c(OC)cc(C(=O)c2cccc(-c3ccc(C)c(O)c3)n2)cc1OC | 24.8 nM | 13.9 nM |  |  |  | 
28 | 38 nM | 51.5 nM | 46.1 nM | 20.8 nM |  |  |  |  |  |  | COc1cc(C(=O)c2cncc(-c3cccc4[nH]ncc34)n2)cc(OC)c1OC | 21.9 nM | 23.8 nM |  |  |  | 

Row | Structure (SMILES) | IC50 [1] | IC50 [2] | IC50 [3] | IC50 [4] | t1/2 [7] | CLint scaled [8] | t1/2 [9] | CLint scaled [10] | half-life ([7]; liver microsomes) | half-life ([9]; liver microsomes) | IC50 [5] | IC50 [6] | Activity [11] | IC50 [12] | IC50 [13] | Activity [14]
29 | COc1cc(C(=O)c2c[nH]c(-c3ccc(C)c(O)c3)n2)cc(OC)c1OC | 24.3 nM | 23.2 nM | 57.6 nM | 41.2 nM | 142.2 min | 8.8 mL/min/kg | 84.6 min | 40.6 mL/min/kg |  |  | 32.4 nM | 78.4 nM |  |  |  | 
